In PMC11359809, “Probing the molecular basis for signal transduction through the Zinc-Activated Channel (ZAC)” (Biochemical pharmacology, 2021):
Substitutions are numbered along the chain they refer to.

Experiments:
ZAC^L9′V = target: T1, ZAC^L9′V (Homo sapiens, UniProt Q401N2, A152T/L270V); assay: TEVC in oocytes, ZAC L9′V mutant; assay type: cell-based; settings: TC 100 μM; outward currents compared to WT ZAC and ZAC^L9′A
T1 construct: expressed in transfected cells; host or cells: Xenopus oocytes (cRNA injection, pUNIV vector)
T1 sequence (Q401N2 26-412 A152T/L270V): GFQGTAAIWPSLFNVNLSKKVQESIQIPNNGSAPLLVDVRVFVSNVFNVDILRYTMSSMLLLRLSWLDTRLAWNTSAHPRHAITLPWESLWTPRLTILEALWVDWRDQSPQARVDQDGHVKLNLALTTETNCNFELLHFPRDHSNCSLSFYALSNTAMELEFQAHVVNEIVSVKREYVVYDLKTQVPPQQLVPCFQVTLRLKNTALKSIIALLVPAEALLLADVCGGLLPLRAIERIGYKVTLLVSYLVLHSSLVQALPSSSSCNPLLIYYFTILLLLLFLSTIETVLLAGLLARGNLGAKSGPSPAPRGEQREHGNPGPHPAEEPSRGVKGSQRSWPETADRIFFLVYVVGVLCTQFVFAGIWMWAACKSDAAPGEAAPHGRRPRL
Method: (§1) The recordings were performed at room temperature.
(§2) Analysis of the data from the TEVC recordings were performed using Clampfit software version 10.5 (Molecular Devices, Crawley, UK) and GraphPad Prism version 7.0c (GraphPad Software, La Jolla, CA). Unless otherwise stated, the inward currents induced by agonists in oocytes were normalized to the maximal response elicited by a specific agonist (agonist Imax) on each oocyte. Concentration-response and concentration-inhibition curves were fitted in GraphPad Prism by nonlinear regression using the equation for sigmoidal dose-response with variable slope. Each data point represents the mean ± S.E.M. value of recordings performed on at least five oocytes in total from at least two different batches. For the data where statistical analysis was performed, a one-way ANOVA was used. The null hypothesis was rejected at P < 0.05, and the differences between the means were analyzed by Tukey’s multiple comparisons test.

ZAC^L9′I = target: T2, ZAC^L9′I (Homo sapiens, UniProt Q401N2, A152T/L270I); assay: TEVC in oocytes, ZAC L9′I mutant; assay type: cell-based; settings: TC 100 μM; outward currents compared to WT ZAC and ZAC^L9′A
T2 construct: expressed in transfected cells; host or cells: Xenopus oocytes (cRNA injection, pUNIV vector)
T2 sequence (Q401N2 26-412 A152T/L270I): T1 sequence (Q401N2 26-412 A152T/L270V) with V245I
Method: as §1, §2

ZAC^L9′A = target: T3, ZAC^L9′A (Homo sapiens, UniProt Q401N2, A152T/L270A); assay: TEVC in oocytes, ZAC L9′A mutant; assay type: cell-based; settings: TC 100 μM
T3 construct: expressed in transfected cells; host or cells: Xenopus oocytes injected with cRNA (pUNIV vector)
T3 sequence (Q401N2 26-412 A152T/L270A): T1 sequence (Q401N2 26-412 A152T/L270V) with V245A
Method: as §1, §2

WT ZAC = target: T4, WT ZAC (Homo sapiens, UniProt Q401N2, A152T); assay: TEVC in Xenopus oocytes expressing WT ZAC; assay type: cell-based; settings: TC 100 μM
T4 construct: expressed in transfected cells; host or cells: Xenopus oocytes injected with cRNA (pUNIV vector)
T4 sequence (Q401N2 26-412 A152T): T1 sequence (Q401N2 26-412 A152T/L270V) with V245L
Method: as §1, §2

[1] = system: ZAC^L9′X mutants (L9′A, L9′V, L9′I, L9′T); assay: TEVC in oocytes, all four L9′X mutants (collective statement); assay type: cell-based, human; settings: TC 100 μM; 1 mM Zn^2+; range over all four mutants
Method: as §1, §2
Fig. 8. Functional importance of the Leu9′ residue in ZAC. […] B. Resting membrane potentials (left) and leak currents (right) recorded from oocytes expressing WT ZAC, ZAC^L9′A, ZAC^L9′T, ZAC^L9′V and ZAC^L9′I. Data are given as mean ± S.E.M. values (n = 40–60). C. […]

ZAC^L9′T = target: T5, ZAC^L9′T (Homo sapiens, UniProt Q401N2, A152T/L270T); assay: TEVC in oocytes, ZAC L9′T mutant; assay type: cell-based; settings: TC 100 μM; outward currents compared to WT ZAC and ZAC^L9′A
T5 construct: expressed in transfected cells; host or cells: Xenopus oocytes (cRNA injection, pUNIV vector)
T5 sequence (Q401N2 26-412 A152T/L270T): T1 sequence (Q401N2 26-412 A152T/L270V) with V245T
Method: as §1, §2

COc1cc2c3cc1Oc1cc(ccc1O)C[C@@H]1c4c(cc(OC)c(O)c4Oc4ccc(cc4)C[C@@H]3N(C)CC2)CC[N+]1(C)C [TC, tubocurarine]
I100 μM TC (antagonist-evoked current, spontaneous activity) (ZAC^L9′V): substantially higher amplitudes
I100 μM TC (antagonist-evoked current, spontaneous activity) (ZAC^L9′I): substantially higher amplitudes
I100 μM TC (antagonist-evoked current, spontaneous activity) (ZAC^L9′A): small but significant outward currents
I100 μM TC (antagonist-evoked current, spontaneous activity) (WT ZAC): small but significant outward currents
I100 μM TC/(IZn2+ max + I100 μM TC) ratio (degree of spontaneous activity) [1]: 34–40%
I100 μM TC (antagonist-evoked current, spontaneous activity) (ZAC^L9′T): substantially higher amplitudes
